# Data from patent US6737383B1, “Herbicidal oxadiazolidines” (priority 1999, dated 2004).
# Legend:
# [1] = test system: bedstraw; assay: Test B pre/postemergence bedstraw; type: in vivo, Galium aparine
# How it was run: (§1)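 Response is a visual 0-to-10 score relative to untreated plants, where 0 means no effect and 10 means complete control, taken twelve to sixteen days after application. Treatments went onto soil at planting and onto foliage of 1- to 4-leaf plants, using a surfactant-containing non-phytotoxic solvent.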
# [2] = test system: blackgrass; assay: Test B pre/postemergence blackgrass; type: in vivo, Alopecurus myosuroides
# How it was run: as §1
# [3] = test system: surinam grass; assay: Test B pre/postemergence surinam grass; type: in vivo, Brachiaria decumbens
# How it was run: as §1
# [4] = test system: cocklebur; assay: Test B pre/postemergence cocklebur; type: in vivo, Xanthium strumarium
# How it was run: as §1
# [5] = test system: corn; assay: Test B pre/postemergence corn; type: in vivo, Zea mays
# How it was run: as §1
# [6] = test system: crabgrass; assay: Test B pre/postemergence crabgrass; type: in vivo, Digitaria sanguinalis
# How it was run: as §1
# [7] = test system: pigweed; assay: Test B pre/postemergence pigweed; type: in vivo, Amaranthus retroflexus
# How it was run: as §1
# [8] = test system: rape; assay: Test B pre/postemergence rape; type: in vivo, Brassica napus
# How it was run: as §1
# [9] = test system: soybean; assay: Test B pre/postemergence soybean; type: in vivo, Glycine max
# How it was run: as §1
# [10] = test system: sugar beet; assay: Test B pre/postemergence sugar beet; type: in vivo, Beta vulgaris
# How it was run: as §1
# [11] = test system: velvetleaf; assay: Test B pre/postemergence velvetleaf; type: in vivo, Abutilon theophrasti
# How it was run: as §1
# [12] = test system: wheat; assay: Test B pre/postemergence wheat; type: in vivo, Triticum aestivum
# How it was run: as §1
# [13] = test system: wild oat; assay: Test B pre/postemergence wild oat; type: in vivo, Avena fatua
# How it was run: as §1
# [14] = test system: purple nutsedge; assay: Test B pre/postemergence purple nutsedge; type: in vivo, Cyperus rotundus
# How it was run: as §1
# [15] = test system: smallflower flatsedge; assay: Test B flood test smallflower flatsedge; type: in vivo, Cyperus difformis
# How it was run: (§2)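 Each value is a visual injury score relative to controls, with 10 meaning complete control and 0 no effect. Evaluation took place twelve to sixteen days after the 2-leaf-stage plants were treated and kept in the greenhouse.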
# [16] = test system: bamyardgrass; assay: Test B flood test barnyardgrass; type: in vivo, Echinochloa crus-galli
# How it was run: as §2
# [17] = Postemergence, Rate 62 g/ha, scale 0 to 10, 0 is no effect, 10 is complete control
# [18] = Postemergence, Rate 250 g/ha, scale 0 to 10, 0 no effect, 10 complete control
# [19] = Preemergence, Rate 62 g/ha, scale 0 to 10 (0 no effect, 10 complete control)
# [20] = Preemergence, Rate 125 g/ha, scale 0 to 10 (0 no effect, 10 complete control)
# [21] = Preemergence, Rate 250 g/ha, scale of 0 to 10 where 0 is no effect and 10 is complete control
# [22] = Preemergence, Rate 500 g/ha, scale 0 (no effect) to 10 (complete control)
# [23] = Rate 125 g/ha, Postemergence, scale 0 to 10, 0 no effect, 10 complete control
# [24] = Rate 500 g/ha, Postemergence, scale 0 to 10, 0 no effect, 10 complete control
# [25] = Rate 125 g/ha, Postemergence section (flood test species), scale 0 to 10, 0 no effect, 10 complete control
# [26] = Rate 500 g/ha, listed under Postemergence (flood test species), scale 0 to 10, 0 no effect, 10 complete control
# [27] = flood test, listed under Postemergence, Rate 250 g/ha, scale 0 to 10, 0 no effect, 10 complete control
structure (smiles),measurement,setting,value
CC(C)N(C(=O)n1oc(=O)n(Cc2cccs2)c1=O)c1ccc(F)cc1 [Compound 80],Bedstraw plant response rating,[1]; [17],0
same,Bedstraw plant response rating,[1]; [18],0
same,Bedstraw plant response rating,[1]; [19],0
same,"Plant response rating, Bedstraw",[1]; [20],0
same,"Plant response rating, Bedstraw",[1]; [21],0
same,Bedstraw plant response rating,[1]; [22],0
same,Bedstraw plant response rating,[1]; [23],0
same,Bedstraw plant response rating,[1]; [24],6
same,Blackgrass plant response rating,[2]; [17],2
same,Blackgrass plant response rating,[2]; [18],3
same,Blackgrass plant response rating,[2]; [19],0
same,"Plant response rating, Blackgrass",[2]; [20],2
same,"Plant response rating, Blackgrass",[2]; [21],4
same,Blackgrass plant response rating,[2]; [22],6
same,Blackgrass plant response rating,[2]; [23],2
same,Blackgrass plant response rating,[2]; [24],5
same,B. signalgrass plant response rating,[3]; [17],0
same,B. signalgrass plant response rating,[3]; [18],0
same,B. signalgrass plant response rating,[3]; [19],0
same,"Plant response rating, B. signalgrass",[3]; [20],0
same,"Plant response rating, B. signalgrass",[3]; [21],0
same,B. signalgrass plant response rating,[3]; [22],4
same,B. signalgrass plant response rating,[3]; [23],0
same,B. signalgrass plant response rating,"[3]; Rate 500 g/ha, Postemergence, scale of 0 to 10 where 0 is no effect and 10 is complete control",0
same,Cocklebur plant response rating,[4]; [17],0
same,Cocklebur plant response rating,[4]; [18],0
same,Cocklebur plant response rating,[4]; [19],0
same,"Plant response rating, Cocklebur",[4]; [20],0
same,"Plant response rating, Cocklebur",[4]; [21],0
same,Cocklebur plant response rating,[4]; [22],0
same,Cocklebur plant response rating,[4]; [23],0
same,Cocklebur plant response rating,[4]; [24],1
same,Corn plant response rating,[5]; [17],0
same,Corn plant response rating,[5]; [18],0
same,Corn plant response rating,[5]; [19],0
same,"Plant response rating, Corn",[5]; [20],0
same,"Plant response rating, Corn",[5]; [21],0
same,Corn plant response rating,[5]; [22],0
same,Corn plant response rating,[5]; [23],0
same,Corn plant response rating,[5]; [24],0
same,Crabgrass plant response rating,[6]; [17],2
same,Crabgrass plant response rating,[6]; [18],9
same,Crabgrass plant response rating,[6]; [19],3
same,"Plant response rating, Crabgrass",[6]; [20],3
same,"Plant response rating, Crabgrass",[6]; [21],10
same,Crabgrass plant response rating,[6]; [22],10
same,Crabgrass plant response rating,[6]; [23],9
same,Crabgrass plant response rating,[6]; [24],9
same,Redroot pigweed plant response rating,[7]; [17],2
same,Redroot pigweed plant response rating,[7]; [18],4
same,"Plant response rating, Redroot pigweed",[7]; [20],7
same,"Plant response rating, Redroot pigweed",[7]; [21],7
same,Redroot pigweed plant response rating,[7]; [22],7
same,Redroot pigweed plant response rating,[7]; [23],3
same,Redroot pigweed plant response rating,[7]; [24],4
same,Rape plant response rating,[8]; [17],2
same,Rape plant response rating,[8]; [18],3
same,Rape plant response rating,[8]; [19],0
same,"Plant response rating, Rape",[8]; [20],3
same,"Plant response rating, Rape",[8]; [21],4
same,Rape plant response rating,[8]; [22],5
same,Rape plant response rating,[8]; [23],2
same,Rape plant response rating,[8]; [24],3
same,Soybean plant response rating,[9]; [17],0
same,Soybean plant response rating,[9]; [18],1
same,Soybean plant response rating,[9]; [19],0
same,"Plant response rating, Soybean",[9]; [20],0
same,"Plant response rating, Soybean",[9]; [21],0
same,Soybean plant response rating,[9]; [22],0
same,Soybean plant response rating,[9]; [23],1
same,Soybean plant response rating,[9]; [24],2
same,Sugarbeets plant response rating,[10]; [18],4
same,Sugarbeets plant response rating,[10]; [19],0
same,"Plant response rating, Sugarbeets",[10]; [20],3
same,"Plant response rating, Sugarbeets",[10]; [21],4
same,Sugarbeets plant response rating,[10]; [22],5
same,Sugarbeets plant response rating,[10]; [23],3
same,Sugarbeets plant response rating,[10]; [24],7
same,Velvetleaf plant response rating,[11]; [17],0
same,Velvetleaf plant response rating,[11]; [18],0
same,Velvetleaf plant response rating,[11]; [19],0
same,"Plant response rating, Velvetleaf",[11]; [20],0
same,"Plant response rating, Velvetleaf",[11]; [21],2
same,Velvetleaf plant response rating,[11]; [22],3
same,Velvetleaf plant response rating,[11]; [23],0
same,Velvetleaf plant response rating,[11]; [24],0
same,Wheat plant response rating,[12]; [17],0
same,Wheat plant response rating,[12]; [18],0
same,Wheat plant response rating,[12]; [19],0
same,"Plant response rating, Wheat",[12]; [20],0
same,"Plant response rating, Wheat",[12]; [21],0
same,Wheat plant response rating,[12]; [22],0
same,Wheat plant response rating,[12]; [23],0
same,Wheat plant response rating,[12]; [24],0
same,Wild oats plant response rating,[13]; [17],0
same,Wild oats plant response rating,[13]; [18],0
same,Wild oats plant response rating,[13]; [19],0
same,"Plant response rating, Wild oats",[13]; [20],2
same,"Plant response rating, Wild oats",[13]; [21],3
same,Wild oats plant response rating,[13]; [22],5
same,Wild oats plant response rating,[13]; [23],0
same,Wild oats plant response rating,[13]; [24],0
same,Nutsedge plant response rating,[14]; [17],0
same,Nutsedge plant response rating,[14]; [18],0
same,Nutsedge plant response rating,[14]; [19],0
same,"Plant response rating, Nutsedge",[14]; [20],0
same,"Plant response rating, Nutsedge",[14]; [21],0
same,Nutsedge plant response rating,[14]; [22],0
same,Nutsedge plant response rating,[14]; [23],0
same,Nutsedge plant response rating,[14]; [24],0
same,S. Flatsedge plant response rating,[15]; [17],0
same,S. Flatsedge plant response rating,[15]; [25],0
same,S. Flatsedge plant response rating,[15]; [26],3
same,S. Flatsedge plant response rating,[15]; [27],3
same,Barnyardgrass plant response rating,[16]; [17],0
same,Barnyardgrass plant response rating,[16]; [25],3
same,Barnyardgrass plant response rating,[16]; [26],9
same,Barnyardgrass plant response rating,[16]; [27],8
